# Laboratory results from ChEMBL document CHEMBL1146371, “HSP90-like artificial chaperone activity based on indole beta-cyclodextrin” (Bioorg Med Chem, 2007).
# The source made the active and inactive calls. No cut-off for these calls is given here.
# Assay: Artificial […]-like chaperone activity assessed as prevention of citrate synthase thermal aggregation
# Format: functional
row,SMILES,Activity
1,OC[C@H]1O[C@@H]2O[C@H]3[C@H](O)[C@@H](O)[C@@H](O[C@H]4[C@H](O)[C@@H](O)[C@@H](O[C@H]5[C@H](O)[C@@H](O)[C@@H](O[C@H]6[C@H](O)[C@@H](O)[C@@H](O[C@H]7[C@H](O)[C@@H](O)[C@@H](O[C@H]8[C@H](O)[C@@H](O)[C@@H](O[C@H]1[C@H](O)[C@H]2O)O[C@@H]8CO)O[C@@H]7CO)O[C@@H]6CO)O[C@@H]5CO)O[C@@H]4CO)O[C@@H]3CO,Active
2,OC[C@H]1O[C@@H]2O[C@H]3[C@H](O)[C@@H](O)[C@@H](O[C@H]4[C@H](O)[C@@H](O)[C@@H](O[C@H]5[C@H](O)[C@@H](O)[C@@H](O[C@H]6[C@H](O)[C@@H](O)[C@@H](O[C@H]7[C@H](O)[C@@H](O)[C@@H](O[C@H]1[C@H](O)[C@H]2O)O[C@@H]7CO)O[C@@H]6CO)O[C@@H]5CO)O[C@@H]4CO)O[C@@H]3CO,inactive
